From patent publication US20240336654A1, “ANTIMICROBIAL PEPTIDOMIMETICS” (SPEXIS AG, priority 2021, published 2024)
Where a SMILES comes first, the peptide text is derived from it. Bridges are numbered along the chain shown (N, C = ends). [ ]: non-standard residue; d: D form. dDab(iPr) = CC(C)NCC[C@@H](N)C(=O)O; Hyp = O=C(O)[C@@H]1C[C@@H](O)CN1; dCit = NC(=O)NCCC[C@@H](N)C(=O)O; Cit = NC(=O)NCCC[C@H](N)C(=O)O; Pen = CC(C)(S)[C@H](N)C(=O)O; dDab = NCC[C@@H](N)C(=O)O; Dab = NCC[C@H](N)C(=O)O

Assays:
Format in all cases: cell-based
[1] = tested on: Klebsiella pneumoniae SSI3010; conditions: SSI3010
Procedure, shortened: (§1)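 The MIC is the lowest peptide concentration, in μg/mL, with no visible growth after 18-20 h incubation at 35 °C. Serial two-fold peptide dilutions in water with 0.002% P-80 final were added to bacteria in cation-adjusted MHII broth, about 5×10^5 CFU/mL, following modified CLSI microdilution.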

[2] = tested on: Escherichia coli ATCC 25922; conditions: ATCC 25922
Procedure, shortened: as §1

[3] = tested on: Escherichia coli MCR-1 Af 45; conditions: MCR-1 Af 45
Procedure, shortened: as §1

[4] = tested on: human red blood cells (hRBC); conditions: red cells of human, 1 h, 200 μg/mL
Procedure, shortened: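 Peptides at 200 μg/mL incubated 1 h at 37 °C with 20% (v/v) washed human RBC, shaking. Hemolysis from supernatant OD540, expressed as percent of 2.5% Triton X-100 lysis, with PBS as 0%.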

Structure (SMILES)	Klebsiella pneumoniae SSI3010 MIC [1] [µg/mL]	Escherichia coli ATCC 25922 MIC [2] [µg/mL]	Escherichia coli MCR-1 Af45 MIC [3] [µg/mL]	Hemolysis at 0.2 g/L [4] [%]
CC[C@H](C)[C@H](NC(=O)[C@@H]1C[C@@H](O)CN1C(=O)[C@@H](N)C(C)C)C(=O)N[C@@H]1C(=O)N[C@@H](Cc2ccc(O)cc2)C(=O)N[C@@H](CO)C(=O)N[C@@H](CC(N)=O)C(=O)N[C@@H](CCCNC(=N)N)C(=O)N[C@@H](CCN)C(=O)N[C@@H]([C@@H](C)O)C(=O)N[C@H](CCN)C(=O)N[C@@H](C)C(=O)N[C@@H](CCN)C(=O)N[C@@H](CCN)C(=O)N[C@H](C(=O)N[C@@H](Cc2ccc(O)cc2)C(=O)O)CSSC1(C)C [Example 39, Val-Hyp-Ile-Pen-Tyr-Ser-Asn-Arg-Dab-Thr-^DDab-Ala-Dab-Dab-Cys-Tyr] (H-V[Hyp]I[Pen]YSNR[Dab]T[dDab]A[Dab][Dab]CY-OH; disulfide 4-15)	0.5	0.25	0.25	<1
CC[C@H](C)[C@H](NC(=O)[C@@H]1C[C@@H](O)CN1C(=O)[C@@H](N)C(C)C)C(=O)N[C@@H]1C(=O)N[C@@H](Cc2ccc(O)cc2)C(=O)N[C@@H](CO)C(=O)N[C@@H](CC(N)=O)C(=O)N[C@@H](CCCNC(=N)N)C(=O)N[C@@H](CCN)C(=O)N[C@@H]([C@@H](C)O)C(=O)N[C@H](CCN)C(=O)N[C@@H](Cc2ccc(O)cc2)C(=O)N[C@@H](CCN)C(=O)N[C@@H](CCN)C(=O)N[C@H](C(=O)N[C@@H](Cc2ccc(O)cc2)C(=O)O)CSSC1(C)C [Example 41, Val-Hyp-Ile-Pen-Tyr-Ser-Asn-Arg-Dab-Thr-^DDab-Tyr-Dab-Dab-Cys-Tyr] (H-V[Hyp]I[Pen]YSNR[Dab]T[dDab]Y[Dab][Dab]CY-OH; disulfide 4-15)	0.25	0.125	0.125	<1
CC[C@H](C)[C@@H]1NC(=O)[C@@H](CCN)NC(=O)[C@H]([C@@H](C)O)NC(=O)[C@H](CCN)NC(=O)[C@H](CCCNC(=N)N)NC(=O)[C@H](CC(N)=O)NC(=O)[C@H](CO)NC(=O)[C@H](Cc2ccc(O)cc2)NC(=O)[C@@H](NC(=O)[C@@H](NC(=O)[C@@H]2C[C@@H](O)CN2C(=O)[C@@H](N)C(C)C)[C@@H](C)CC)C(C)(C)SSC[C@@H](C(=O)N[C@@H](Cc2ccc(O)cc2)C(=O)O)NC(=O)[C@H](CCN)NC(=O)[C@H](CCN)NC1=O [Example 42, Val-Hyp-Ile-Pen-Tyr-Ser-Asn-Arg-Dab-Thr-^DDab-Ile-Dab-Dab-Cys-Tyr] (H-V[Hyp]I[Pen]YSNR[Dab]T[dDab]I[Dab][Dab]CY-OH; disulfide 4-15)	0.25	0.125	0.125	<1
CC[C@H](C)[C@H](NC(=O)[C@@H]1C[C@@H](O)CN1C(=O)[C@@H](N)C(C)C)C(=O)N[C@@H]1C(=O)N[C@@H](Cc2ccc(O)cc2)C(=O)N[C@@H](CO)C(=O)N[C@@H](CC(N)=O)C(=O)N[C@@H](CCCNC(=N)N)C(=O)N[C@@H](CCN)C(=O)N[C@@H]([C@@H](C)O)C(=O)N[C@H](CCN)C(=O)N[C@@H](CC(N)=O)C(=O)N[C@@H](CCN)C(=O)N[C@@H](CCN)C(=O)N[C@H](C(=O)N[C@@H](Cc2ccc(O)cc2)C(=O)O)CSSC1(C)C [Example 43, Val-Hyp-Ile-Pen-Tyr-Ser-Asn-Arg-Dab-Thr-^DDab-Asn-Dab-Dab-Cys-Tyr] (H-V[Hyp]I[Pen]YSNR[Dab]T[dDab]N[Dab][Dab]CY-OH; disulfide 4-15)	0.5	0.25	0.25	<1
CC[C@H](C)[C@H](NC(=O)[C@@H]1C[C@@H](O)CN1C(=O)[C@@H](N)C(C)C)C(=O)N[C@@H]1C(=O)N[C@@H](Cc2ccc(O)cc2)C(=O)N[C@@H](CO)C(=O)N[C@@H](CC(N)=O)C(=O)N[C@@H](CCCNC(=N)N)C(=O)N[C@@H](CCN)C(=O)N[C@@H]([C@@H](C)O)C(=O)N[C@H](CCN)C(=O)N[C@@H](CO)C(=O)N[C@@H](CCN)C(=O)N[C@@H](CCN)C(=O)N[C@H](C(=O)N[C@@H](Cc2ccc(O)cc2)C(=O)O)CSSC1(C)C [Example 44, Val-Hyp-Ile-Pen-Tyr-Ser-Asn-Arg-Dab-Thr-^DDab-Ser-Dab-Dab-Cys-Tyr] (H-V[Hyp]I[Pen]YSNR[Dab]T[dDab]S[Dab][Dab]CY-OH; disulfide 4-15)	0.25	0.25	0.125	<1
CC[C@H](C)[C@H](NC(=O)[C@@H]1C[C@@H](O)CN1C(=O)[C@@H](N)C(C)C)C(=O)N[C@@H]1C(=O)N[C@@H](Cc2ccc(O)cc2)C(=O)N[C@@H](CO)C(=O)N[C@@H](CC(N)=O)C(=O)N[C@@H](CCCNC(=N)N)C(=O)N[C@@H](CCN)C(=O)N[C@@H]([C@@H](C)O)C(=O)N[C@H](CCN)C(=O)N[C@@H](CCCCN)C(=O)N[C@@H](C)C(=O)N[C@@H](CCN)C(=O)N[C@H](C(=O)N[C@@H](Cc2ccc(O)cc2)C(=O)O)CSSC1(C)C [Example 46, Val-Hyp-Ile-Pen-Tyr-Ser-Asn-Arg-Dab-Thr-^DDab-Lys-Ala-Dab-Cys-Tyr] (H-V[Hyp]I[Pen]YSNR[Dab]T[dDab]KA[Dab]CY-OH; disulfide 4-15)	0.5	0.5	0.25	<1

Further lines, with some results ahead:

Klebsiella pneumoniae SSI3010 MIC [1] [µg/mL]	Escherichia coli ATCC 25922 MIC [2] [µg/mL]	Escherichia coli MCR-1 Af45 MIC [3] [µg/mL]	Structure (SMILES)	Hemolysis at 0.2 g/L [4] [%]
0.125	0.125	0.125	CC[C@H](C)[C@H](NC(=O)[C@@H]1C[C@@H](O)CN1C(=O)[C@@H](N)C(C)C)C(=O)N[C@@H]1C(=O)N[C@@H](Cc2ccc(O)cc2)C(=O)N[C@@H](CO)C(=O)N[C@@H](CC(N)=O)C(=O)N[C@@H](CCCNC(=N)N)C(=O)N[C@@H](CCN)C(=O)N[C@@H]([C@@H](C)O)C(=O)N[C@H](CCCNC(=N)N)C(=O)N[C@@H](CCCCN)C(=O)N[C@@H](CCN)C(=O)N[C@@H](CCN)C(=O)N[C@H](C(=O)N[C@@H](Cc2ccc(O)cc2)C(=O)O)CSSC1(C)C [Example 36, Val-Hyp-Ile-Pen-Tyr-Ser-Asn-Arg-Dab-Thr-^DArg-Lys-Dab-Dab-Cys-Tyr] (H-V[Hyp]I[Pen]YSNR[Dab]T[dR]K[Dab][Dab]CY-OH; disulfide 4-15)	<1
0.5	0.5	0.5	CC[C@H](C)[C@H](NC(=O)[C@@H]1C[C@@H](O)CN1C(=O)[C@@H](N)C(C)C)C(=O)N[C@@H]1C(=O)N[C@@H](Cc2ccc(O)cc2)C(=O)N[C@@H](CO)C(=O)N[C@@H](CC(N)=O)C(=O)N[C@@H](CCCNC(=N)N)C(=O)N[C@@H](CCN)C(=O)N[C@@H]([C@@H](C)O)C(=O)N[C@H](CCCNC(N)=O)C(=O)N[C@@H](CCCCN)C(=O)N[C@@H](CCN)C(=O)N[C@@H](CCN)C(=O)N[C@H](C(=O)N[C@@H](Cc2ccc(O)cc2)C(=O)O)CSSC1(C)C [Example 37, Val-Hyp-Ile-Pen-Tyr-Ser-Asn-Arg-Dab-Thr-^DCit-Lys-Dab-Dab-Cys-Tyr] (H-V[Hyp]I[Pen]YSNR[Dab]T[dCit]K[Dab][Dab]CY-OH; disulfide 4-15)	<1
0.5	0.125	0.125	CC[C@H](C)[C@H](NC(=O)[C@@H]1C[C@@H](O)CN1C(=O)[C@@H](N)C(C)C)C(=O)N[C@@H]1C(=O)N[C@@H](Cc2ccc(O)cc2)C(=O)N[C@@H](CO)C(=O)N[C@@H](CC(N)=O)C(=O)N[C@@H](CCCNC(=N)N)C(=O)N[C@@H](CCN)C(=O)N[C@@H]([C@@H](C)O)C(=O)N[C@H](CCNC(C)C)C(=O)N[C@@H](CCCCN)C(=O)N[C@@H](CCN)C(=O)N[C@@H](CCN)C(=O)N[C@H](C(=O)N[C@@H](Cc2ccc(O)cc2)C(=O)O)CSSC1(C)C [Example 38, Val-Hyp-Ile-Pen-Tyr-Ser-Asn-Arg-Dab-Thr-^DDab(iPr)-Lys-Dab-Dab-Cys-Tyr] (H-V[Hyp]I[Pen]YSNR[Dab]T[dDab(iPr)]K[Dab][Dab]CY-OH; disulfide 4-15)	<1
0.5	0.25	0.125	CC[C@H](C)[C@H](NC(=O)[C@@H]1C[C@@H](O)CN1C(=O)[C@@H](N)C(C)C)C(=O)N[C@@H]1C(=O)N[C@@H](Cc2ccc(O)cc2)C(=O)N[C@@H](CO)C(=O)N[C@@H](CC(N)=O)C(=O)N[C@@H](CCCNC(=N)N)C(=O)N[C@@H](CCN)C(=O)N[C@@H]([C@@H](C)O)C(=O)N[C@H](CCN)C(=O)N[C@@H](CCCNC(N)=O)C(=O)N[C@@H](CCN)C(=O)N[C@@H](CCN)C(=O)N[C@H](C(=O)N[C@@H](Cc2ccc(O)cc2)C(=O)O)CSSC1(C)C [Example 40, Val-Hyp-Ile-Pen-Tyr-Ser-Asn-Arg-Dab-Thr-^DDab-Cit-Dab-Dab-Cys-Tyr] (H-V[Hyp]I[Pen]YSNR[Dab]T[dDab][Cit][Dab][Dab]CY-OH; disulfide 4-15)	<1
0.0625	0.125	0.125	CC[C@H](C)[C@H](NC(=O)[C@@H]1C[C@@H](O)CN1C(=O)[C@@H](N)C(C)C)C(=O)N[C@@H]1C(=O)N[C@@H](Cc2ccc(O)cc2)C(=O)N[C@@H](CCN)C(=O)N[C@@H](CC(N)=O)C(=O)N[C@@H](CCCNC(=N)N)C(=O)N[C@@H](CCN)C(=O)N[C@@H]([C@@H](C)O)C(=O)N[C@H](CCN)C(=O)N[C@@H](CCCCN)C(=O)N[C@@H](CO)C(=O)N[C@@H](CCN)C(=O)N[C@H](C(=O)N[C@@H](Cc2ccc(O)cc2)C(=O)O)CSSC1(C)C [Example 45, Val-Hyp-Ile-Pen-Tyr-Dab-Asn-Arg-Dab-Thr-^DDab-Lys-Ser-Dab-Cys-Tyr] (H-V[Hyp]I[Pen]Y[Dab]NR[Dab]T[dDab]KS[Dab]CY-OH; disulfide 4-15)	<1
